The results in this text go back to patent publication US8618299B2, “Azinone-substituted azapolycycle MCH-1 antagonists, methods of making, and use thereof” (Albany Molecular Research, Inc., priority 2009, dated 2013).

One data set addresses human MCH-1 receptor (Homo sapiens (Human), UniProt Q99705). The experiment in a line: Binding assay for human melanin-concentrating hormone (MCH1) receptor. The note with it: membranes from CHO-K1 cells expressing human MCH1 receptor; 1.4 nM [3H]-labeled radioligand, 60 min at 25° C., pH 7.4; Ki from Cheng Prusoff equation. As to the method: Binding Assay for Human Melanin-Concentrating Hormone (MCH1) Receptor
Evaluation of the affinity of compounds for the human MCH-1 receptor was accomplished using 4-(3,4,5-tritritiumbenzyloxy)-1-(1-(2-(pyrrolidin-1-yl)ethyl)-1H-indazol-5-yl)pyridin-2(1H)-one and membranes prepared from stable CHO-K1 cells expressing the human MCH1 receptor obtained from Euroscreen (Batch 1138). Cell membrane homogenates (8.92 μg protein) were incubated for 60 min at 25° C. with 1.4 nM of the [^3H]-labeled compound in the absence or presence of the test compound in 50 mM Tris-HCl buffer, pH 7.4. Nonspecific binding was determined in the presence of 50 μM 1-(5-(4-cyanophenyl)bicyclo[3.1.0]hexan-2-yl)-3-(4-fluoro-3-(trifluoromethyl)phenyl)-1-(3-(4-methylpiperazin-1-yl)propyl)urea. Following incubation, the samples were filtered rapidly under vacuum through Skatron 11731 filters, pre-soaked in 0.5% polyethylenimine, and washed with ice-cold 50 mM Tris-HCl buffer, pH 7.4, (wash setting 9,9,0) using a Skatron cell harvester. The filters were counted for radioactivity in a liquid scintillation counter (Tri-Carb 2100TR, Packard) using a scintillation cocktail (Ultima Gold MV, Perkin Elmer).
The results are expressed as a percent inhibition of the control radioligand specific binding. The IC50 value (concentration causing a half-maximal inhibition of control specific binding) and Hill coefficient (nH) were determined by non-linear regression analysis of the competition curve using Hill equation curve fitting. The inhibition constant (Ki) was calculated from the Cheng Prusoff equation: (Ki=IC50/(1+(L/KD)), where L=concentration of radioligand in the assay, and KD=affinity of the radioligand for the receptor.

SMILES strings stand for the structures.

Chain of human MCH-1 receptor (Q99705 whole entry): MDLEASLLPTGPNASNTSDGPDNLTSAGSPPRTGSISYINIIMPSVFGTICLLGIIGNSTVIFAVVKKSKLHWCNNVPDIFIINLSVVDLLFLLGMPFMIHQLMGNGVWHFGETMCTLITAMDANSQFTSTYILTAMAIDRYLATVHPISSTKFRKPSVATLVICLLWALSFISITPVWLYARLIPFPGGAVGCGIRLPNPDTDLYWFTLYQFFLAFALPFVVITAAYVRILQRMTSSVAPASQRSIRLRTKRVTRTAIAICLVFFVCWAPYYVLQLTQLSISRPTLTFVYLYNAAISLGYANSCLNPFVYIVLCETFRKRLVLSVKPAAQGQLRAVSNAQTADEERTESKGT

Take `Cl.O=c1cc(OCc2ccccc2)ccn1-c1ccc2c3c([nH]c2c1)CC1CCCCN1C3` (centres unmarked) [Example 29, 4-(Benzyloxy)-1-(5,6,6a,7,8,9,10,12-octahydroindolo[2,3-b]quinolizin-3-yl)-pyridin-2(1H)-one Hydrochloride]: the melting point lay in the range of 270 to 273 °C. This compound also yielded an inhibition constant Ki on human MCH-1 receptor of 8.5 nM.
On to `Cl.Cn1c2c(c3ccc(-n4ccc(-c5ccc(C(F)(F)F)nc5)cc4=O)cc31)CN1CCCC1C2` (centres unmarked) [Example 30, 1-(10-Methyl-2,3,5,10,11,11a-hexahydro-1H-indolizino[7,6-b]indol-8-yl)-4-(6-(trifluoromethyl)pyridin-3-yl)pyridin-2(1H)-one Hydrochloride], for which the melting point lay in the range of 290 to 293 °C. The affinity on human MCH-1 receptor, expressed as Ki, was 8.3 nM.
`Cl.Cn1c2c(c3ccc(-n4ccc(OCc5ccc(C(F)(F)F)nc5)cc4=O)cc31)CN1CCCC1C2` (centres unmarked) [Example 32, 1-(10-Methyl-2,3,5,10,11,11a-hexahydro-1H-indolizino[7,6-b]indol-8-yl)-4-((6-(trifluoromethyl)pyridin-3-yl)methoxy)pyridin-2(1H)-one Hydrochloride]: the melting point was in the range of 255 to 259 °C. At human MCH-1 receptor, this compound yielded an inhibitory constant (Ki) of 24 nM.
Compound `Cl.Cn1c2c(c3ccc(-n4ccc(OCc5ccc(C(F)(F)F)nc5)cc4=O)cc31)CN1CCCCC1C2` (centres unmarked) [Example 34, 1-(5-Methyl-5,6,6a,7,8,9,10,12-octahydroindolo[2,3-b]quinolizin-3-yl)-4-((6-(trifluoromethyl)pyridin-3-yl)methoxy)pyridin-2(1H)-one Hydrochloride] registered a melting point of 260 to 262 °C. Moreover, at human MCH-1 receptor, the affinity corresponds to a Ki of 24 nM.
Compound `Cl.Cn1c2c(c3ccc(-n4ccc(-c5ccc(C(F)(F)F)nc5)cc4=O)cc31)CN1CCCCC1C2` (centres unmarked) [Example 36, 1-(5-Methyl-5,6,6a,7,8,9,10,12-octahydroindolo[2,3-b]quinolizin-3-yl)-4-(6-(trifluoromethyl)pyridin-3-yl)pyridin-2(1H)-one Hydrochloride] displayed a melting point of 245 to 248 °C. Besides, the inhibition constant Ki on human MCH-1 receptor was found to be 7 nM.
For the compound `Cl.O=c1cc(-c2ccc(C(F)(F)F)cc2)ccn1-c1ccc2c3c([nH]c2c1)CC1CCCN1C3` (centres unmarked) [Example 39, 1-(2,3,5,10,11,11a-Hexahydro-1H-indolizino[7,6-b]indol-8-yl)-4-(4-(trifluoromethyl)phenyl)pyridin-2(1H)-one Hydrochloride], the melting point is 275 to 285 °C. At human MCH-1 receptor, this compound came in with a Ki of 8.5 nM.
The compound `Cl.O=c1cc(-c2ccc(C(F)(F)F)nc2)ccn1-c1ccc2c3c([nH]c2c1)CC1CCCN1C3` (centres unmarked) [Example 41, 1-(2,3,5,10,11,11a-Hexahydro-1H-indolizino[7,6-b]indol-8-yl)-4-(6-(trifluoromethyl)pyridin-3-yl)pyridin-2(1H)-one Hydrochloride] had a melting point of 275 to 285 °C. Also, on human MCH-1 receptor, the Ki was 14 nM.
Take `Cl.Cn1c2c(c3ccc(-n4ccc(OCc5ccccc5)cc4=O)nc31)C1CCCN1CC2` (centres unmarked) [Example 44, 4-(Benzyloxy)-1-(7-methyl-2,3,5,6,7,11c-hexahydro-1H-pyrido[3′,2′:4,5]pyrrolo[2,3-g]indolizin-9-yl)pyridin-2(1H)-one Hydrochloride]: the melting point lay in the range of 130 to 140 °C. The compound also displayed a Ki at human MCH-1 receptor of 12 nM.
For `Cl.Cn1c2c(c3ccc(-n4ccc(OCc5ccc(F)cc5F)cc4=O)nc31)C1CCCN1CC2` (centres unmarked) [Example 46, 4-(2,4-Difluorobenzyloxy)-1-(7-methyl-2,3,5,6,7,11c-hexahydro-1H-pyrido[3′,2′:4,5]pyrrolo[2,3-g]indolizin-9-yl)pyridin-2(1H)-one Hydrochloride], in that order: 134 to 145 °C and 16 nM.
With `Cl.Cn1c2c(c3ccc(-n4ccc(OCc5ccc(Cl)cc5F)cc4=O)nc31)C1CCCN1CC2` (centres unmarked) [Example 47, 4-(4-Chloro-2-fluorobenzyloxy)-1-(7-methyl-2,3,5,6,7,11c-hexahydro-1H-pyrido[3′,2′:4,5]pyrrolo[2,3-g]indolizin-9-yl)pyridin-2(1H)-one Hydrochloride], the melting point is 150 to 160 °C. The same compound displayed a Ki on human MCH-1 receptor of 10 nM.
For `Cl.Cn1c2c(c3ccc(-n4ccc(-c5ccc(C(F)(F)F)nc5)cc4=O)nc31)C1CCCN1CC2` (centres unmarked) [Example 48, 1-(7-Methyl-2,3,5,6,7,11c-hexahydro-1H-pyrido[3′,2′:4,5]pyrrolo[2,3-g]indolizin-9-yl)-4-(6-(trifluoromethyl)pyridin-3-yl)pyridin-2(1H)-one Hydrochloride], in that order: 290 to 300 °C and 47 nM.
For `Cl.Cn1c2c(c3ccc(-n4ccc(-c5ccc(C(F)(F)F)cc5)cc4=O)nc31)C1CCCN1CC2` (centres unmarked) [Example 49, 1-(7-Methyl-2,3,5,6,7,11c-hexahydro-1H-pyrido[3′,2′:4,5]pyrrolo[2,3-g]indolizin-9-yl)-4-(4-(trifluoromethyl)phenyl)pyridin-2(1H)-one Hydrochloride], in that order: 190 to 200 °C and 15 nM.
`Cl.Cn1c2c(c3ccc(-n4ccc(OCc5ccccc5)cc4=O)nc31)CN1CCCC1C2` (centres unmarked) [Example 50, 4-(Benzyloxy)-1-(11-methyl-5,7,8,9,9a,10-hexahydro-11H-pyrido[3′,2′:4,5]pyrrolo[3,2-f]indolizin-2-yl)pyridin-2(1H)-one Hydrochloride] came in with a melting point of 240 to 250 °C. The Ki at human MCH-1 receptor is 16 nM.
Compound `Cl.Cn1c2c(c3ccc(-n4ccc(OCc5ccc(F)cn5)cc4=O)nc31)CN1CCCC1C2` (centres unmarked) [Example 51, 4-((5-Fluoropyridin-2-yl)methoxy)-1-(11-methyl-5,7,8,9,9a,10-hexahydro-11H-pyrido[3′,2′:4,5]pyrrolo[3,2-f]indolizin-2-yl)pyridin-2(1H)-one Hydrochloride] registered a melting point of 220 to 230 °C. This compound also showed a Ki on human MCH-1 receptor of 37 nM.
On the same counts, the results for `Cl.Cn1c2c(c3ccc(-n4ccc(-c5ccc(C(F)(F)F)cc5)cc4=O)nc31)CN1CCCC1C2` (centres unmarked) [Example 52, 1-(11-Methyl-5,7,8,9,9a,10-hexahydro-11H-pyrido[3′,2′:4,5]pyrrolo[3,2-f]indolizin-2-yl)-4-(4-(trifluoromethyl)phenyl)pyridin-2(1H)-one Hydrochloride] are 300 to 305 °C and 17 nM.
For `Cl.Cn1c2c(c3ccc(-n4ccc(-c5ccc(C(F)(F)F)nc5)cc4=O)nc31)CN1CCCC1C2` (centres unmarked) [Example 53, 1-(11-Methyl-5,7,8,9,9a,10-hexahydro-11H-pyrido[3′,2′:4,5]pyrrolo[3,2-f]indolizin-2-yl)-4-(6-(trifluoromethyl)pyridin-3-yl)pyridin-2(1H)-one Hydrochloride], in that order: 280 to 290 °C and 33 nM.
`Cl.Cn1c2c(c3ccc(-n4ccc(OCc5ccc(Cl)cc5F)cc4=O)nc31)CN1CCCC1C2` (centres unmarked) [Example 54, 4-(4-Chloro-2-fluorobenzyloxy)-1-(11-methyl-5,7,8,9,9a,10-hexahydro-11H-pyrido[3′,2′:4,5]pyrrolo[3,2-f]indolizin-2-yl)pyridin-2(1H)-one Hydrochloride] came in with a melting point of 210 to 220 °C. Moreover, the Ki on human MCH-1 receptor came out at 26 nM.
Compound `Cl.Cn1c2c(c3ccc(-n4ccc(OCc5ccc(F)cc5F)cc4=O)nc31)CN1CCCC1C2` (centres unmarked) [Example 55, 4-(2,4-Difluorobenzyloxy)-1-(11-methyl-5,7,8,9,9a,10-hexahydro-11H-pyrido[3′,2′:4,5]pyrrolo[3,2-f]indolizin-2-yl)pyridin-2(1H)-one Hydrochloride] registered a melting point of 140 to 150 °C. At human MCH-1 receptor, this compound had a Ki of 31 nM.
For the compound `Cl.Cn1c2c(c3ccc(-n4ccc(OCc5ncc(F)cc5F)cc4=O)nc31)CN1CCCC1C2` (centres unmarked) [Example 56, 4-((3,5-Difluoropyridin-2-yl)methoxy)-1-(11-methyl-5,7,8,9,9a,10-hexahydro-11H-pyrido[3′,2′:4,5]pyrrolo[3,2-f]indolizin-2-yl)pyridin-2(1H)-one Hydrochloride], the melting point was in the range of 220 to 230 °C. On human MCH-1 receptor, this compound gave a Ki of 121 nM.
